The test system of assay [1] is DOHH2 cells. Put plainly: Cell proliferation assay (MTS), DOHH2 cells, 120 h. It counts as cell-based. Particulars: Homo sapiens, DOHH-2, 120 h. In short, it runs like this:
(§1)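 Cells in RPMI-1640 with 10% FBS were seeded at 5000/well, left overnight at 37° C., 5% CO2, then exposed to compound at 10000 down to 1.5 nM (nine concentrations) for 72 h (RS4;11) or 120 h (DOHH2). Viability was read by MTS, 2 h, absorbance at 490/650 nm; IC50 calculated.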

Assay [2] concerns RS4;11 cells. The assay is described as follows: Cell proliferation assay (MTS), RS4;11 cells, 72 h. The note with it: Homo sapiens, RS4-11, 72 h. The class given is cell-based. In short, it runs like this:
as §1

The structures appear in SMILES notation.

As for `CC1(C)CCC(CN2CCN(c3ccc(C(=O)NS(=O)(=O)c4cc5c(c([N+](=O)[O-])c4)N[C@@H](CN4CCC(C)(O)CC4)C5)c(Oc4cnc5[nH]ccc5c4)c3)CC2)=C(c2ccc(Cl)cc2)C1` [Example 1-9, (R)-2-((1H-pyrrolo[2,3-b]pyridin-5-yl)oxy)-4-(4-((4′-chloro-5,5-dimethyl-3,4,5,6-tetra-hydro-[1,1′-biphenyl]-2-yl)methyl)piperazin-1-yl)-N-((2-((4-hydroxy-4-methylpiperidin-1-yl)methyl)-7-nitroindolin-5-yl)sulfonyl) benzamide], the IC50 in assay [1] was 0.066 µM; in assay [2] it was 0.08 µM.
For `CC1(C)CCC(CN2CCN(c3ccc(C(=O)NS(=O)(=O)c4cc5c(c([N+](=O)[O-])c4)N[C@H](CCS(C)(=O)=O)CO5)c(Oc4cnc5[nH]ccc5c4)c3)CC2)=C(c2ccc(Cl)cc2)C1` [Example 2-64, (R)-2-((1H-pyrrolo[2,3-b]pyriidn-5-yl)oxy)-4-(4-((4′-chloro-5,5-dimethyl-3,4,5,6-tetra-hydro-[1,1′-biphenyl]-2-yl)methyl)piperazin-1-yl)-N-((3-(2-(methylsulfonyl)ethyl)-5-nitro-3,4-dihydro-2H-benzo[b][1,4]oxazin-7-yl)sulfonyl)benzamide], in that order: 0.07 µM and 0.025 µM.
In the same order, the values of `CC1(C)CCC(c2ccc(Cl)cc2)=C(CN2CCN(c3ccc(C(=O)NS(=O)(=O)c4cc5c(c([N+](=O)[O-])c4)N[C@H](COC4CCOCC4)CO5)c(Oc4cnc5[nH]ccc5c4)c3)CC2)C1` [Example 2-234, (R)-2-((1H-pyrrolo[2,3-b]pyridin-5-yl)oxy)-4-(4-((4′-chloro-4,4-dimethyl-3,4,5,6-tetra-hydro-[1,1′-biphenyl]-2-yl)methyl)piperazin-1-yl)-N-((5-nitro-3-(((tetrahydro-2H-pyran-4-yl)oxy)methyl)-3,4-dihydro-2H-benzo [b][1,4]oxazin-7-yl)sulfonyl)benzamide] are 0.006 µM and 0.014 µM.
For the compound `CN(C)C[C@H]1CSc2cc(S(=O)(=O)NC(=O)c3ccc(N4CCN(CC5=C(c6ccc(Cl)cc6)CC(C)(C)CC5)CC4)cc3Oc3cnc4[nH]ccc4c3)cc([N+](=O)[O-])c2N1` [Example 3-8, (S)-2-((1H-pyrrolo[2,3-b]pyridin-5-yl)oxy)-4-(4-((4′-chloro-5,5-dimethyl-3,4,5,6-tetra-hydro-[1,1′-biphenyl]-2-yl)methyl)piperazin-1-yl)-N-((3-((dimethylamino)methyl)-5-nitro-3,4-dihydro-2H-benzo[b][1,4]thiazin-7-yl)sulfonyl)benzamide], the values for the IC50 in assay [1] and in assay [2] were 0.067 µM and 0.017 µM, respectively.
For `COc1ccc(C[C@@H]2COc3cc(S(=O)(=O)NC(=O)c4ccc(N5CCN(CC6=C(c7ccc(Cl)cc7)CC(C)(C)CC6)CC5)cc4Oc4cnc5[nH]ccc5c4)cc([N+](=O)[O-])c3N2)nc1` [Example 2-200, (R)-2-((1H-pyrrolo[2,3-b]pyridin-5-yl)oxy)-4-(4-((4′-chloro-5,5-dimethyl-3,4,5,6-tetra-hydro-[1,1′-biphenyl]-2-yl)methyl)piperazin-1-yl)-N-((3-((5-methoxypyridin-2-yl)meth-yl)-5-nitro-3,4-dihydro-2H-benzo[b][1,4]oxazin-7-yl)sulfonyl)benzamide], the IC50 in assay [1] worked out at 0.218 µM; in assay [2], 0.003 µM.
Regarding `CC(C)OC[C@H]1COc2cc(S(=O)(=O)NC(=O)c3ccc(N4CCN(CC5=C(c6ccc(Cl)cc6)CC(C)(C)CC5)CC4)cc3Oc3cnc4[nH]ccc4c3)cc([N+](=O)[O-])c2N1` [Example 2-237, (S)-2-((1H-pyrrolo[2,3-b]pyridin-5-yl)oxy)-4-(4-((4′-chloro-5,5-dimethyl-3,4,5,6-tetra-hydro-[1,1′-biphenyl]-2-yl)methyl)piperazin-1-yl)-N-((3-(isopropoxymethyl)-5-nitro-3,4-dihydro-2H-benzo[b][1,4]oxazin-7-yl)sulfonyl)benzamide], the figures for the concentration for half-maximal inhibition (IC50) in assay [1] and in assay [2] were 0.003 µM and 0.014 µM, respectively.
In the case of `CC1(C)CCC(CN2CCN(c3ccc(C(=O)NS(=O)(=O)c4cc5c(c([N+](=O)[O-])c4)N[C@@H](CN4CCOCC4)C5)c(Oc4cnc5[nH]ccc5c4)c3)CC2)=C(c2ccc(Cl)cc2)C1` [Example 1-8, (R)-2-((1H-pyrrolo[2,3-b]pyridin-5-yl)oxy)-4-(4-((4′-chloro-5,5-dimethyl-3,4,5,6-tetra-hydro-[1,1′-biphenyl]-2-yl)methyl)piperazin-1-yl)-N-((2-(morpholinomethyl)-7-nitro-indolin-5-yl)sulfonyl)benzamide], the figures for the half-inhibitory concentration (IC50) in assay [1] and in assay [2] were 0.027 µM and 0.001 µM, respectively.
Take `CC1(C)CCC(CN2CCN(c3ccc(C(=O)NS(=O)(=O)c4cc5c(c([N+](=O)[O-])c4)N[C@@H](CC4CCC(C)(O)CC4)CO5)c(Oc4cnc5[nH]ccc5c4)c3)CC2)=C(c2ccc(Cl)cc2)C1` (stereo partly drawn) [Example 2-216, (S)-2-((1H-pyrrolo[2,3-b]pyridin-5-yl)oxy)-4-(4-((4′-chloro-5,5-dimethyl-3,4,5,6-tetra-hydro-[1,1′-biphenyl]-2-yl)methyl)piperazin-1-yl)-N-((3-((4-hydroxy-4-methylcyclohex-yl)methyl)-5-nitro-3,4-dihydro-2H-benzo [b][1,4]oxazin-7-yl)sulfonyl)benzamide]: the values for the 50% inhibitory concentration (IC50) in assay [1] and in assay [2] were 0.268 µM and 0.013 µM, respectively.
As to `CC1(C)CCC(CN2CCN(c3ccc(C(=O)NS(=O)(=O)c4cc5c(c([N+](=O)[O-])c4)O[C@@H](CN4CCOCC4)CO5)c(Oc4cnc5[nH]ccc5c4)c3)CC2)=C(c2ccc(Cl)cc2)C1` [Example 5-1, (S)-2-((1H-pyrrolo[2,3-b]pyridin-5-yl)oxy)-4-(4-((4′-chloro-5,5-dimethyl-3,4,5,6-tetrahydro-[1,1′-biphenyl]-2-yl)methyl)piperazin-1-yl)-N-((2-(morpholinomethyl)-8-nitro-2,3-dihydrobenzo[b][1,4]dioxin-6-yl)sulfonyl)benzamide], the results for the half-maximal inhibitory concentration (IC50) in assay [1] and in assay [2] were 0.017 µM and 0.009 µM, respectively.
In the case of `CC1(C)CCC(CN2CCN(c3ccc(C(=O)NS(=O)(=O)c4cc5c(c([N+](=O)[O-])c4)N[C@H](CCN=S4(=O)CCOCC4)CO5)c(Oc4cnc5[nH]ccc5c4)c3)CC2)=C(c2ccc(Cl)cc2)C1` [Example 2-74, (R)-2-((1H-pyrrolo[2,3-b]pyridin-5-yl)oxy)-4-(4-((4′-chloro-5,5-dimethyl-3,4,5,6-tetra-hydro-[1,1′-biphenyl]-2-yl)methyl)piperazin-1-yl)-N-((5-nitro-3-(2-((4-oxido-1,4λ^6-ox-athian-4-lidene)amino)ethyl)-3,4-dihydro-2H-benzo[b][1,4]oxazin-7-yl)sulfonyl)ben-zamide], the IC50 came to 0.108 µM in assay [1] and 0.064 µM in assay [2].
For the compound `CN(C)CC[C@@H]1Cc2cc(S(=O)(=O)NC(=O)c3ccc(N4CCN(CC5=C(c6ccc(Cl)cc6)CC(C)(C)CC5)CC4)cc3Oc3cnc4[nH]ccc4c3)cc([N+](=O)[O-])c2N1` [Example 1-14, (S)-2-((1H-pyrrolo[2,3-b]pyridin-5-yl)oxy)-4-(4-((4′-chloro-5,5-dimethyl-3,4,5,6-tetra-hydro-[1,1′-biphenyl]-2-yl)methyl)piperazin-1-yl)-N-((2-(2-(dimethylamino)ethyl)-7-nitroindolin-5-yl)sulfonyl)benzamide], the IC50 in assay [1] stood at 0.057 µM; in assay [2], 0.052 µM.
For `CN1CCN(C[C@@H]2COc3cc(S(=O)(=O)NC(=O)c4ccc(N5CCN(CC6=C(c7ccc(Cl)cc7)CC(C)(C)CC6)CC5)cc4Oc4cnc5[nH]ccc5c4)cc([N+](=O)[O-])c3O2)CC1` [Example 5-4], in that order: 0.013 µM and 0.034 µM.
`CC(=O)N1CCC([C@H]2COc3cc(S(=O)(=O)NC(=O)c4ccc(N5CCN(CC6=C(c7ccc(Cl)cc7)CC(C)(C)CC6)CC5)cc4Oc4cnc5[nH]ccc5c4)cc([N+](=O)[O-])c3N2)CC1` [Example 2-231, (S)-2-((1H-pyrrolo[2,3-b]pyridin-5-yl)oxy)-N-((3-(1-acetylpiperidin-4-yl)-5-nitro-3,4-dihydro-2H-benzo[b][1,4]oxazin-7-yl)sulfonyl)-4-(4-((4′-chloro-5,5-dimethyl-3,4,5,6-tetrahydro-[1,1′-biphenyl]-2-yl)methyl)pi-perazin-1-yl)benzamide]: the IC50 in assay [1] came out at 0.005 µM; in assay [2] it was 0.001 µM.
Regarding `CC1(C)CCC(CN2CCN(c3ccc(C(=O)NS(=O)(=O)c4cc5c(c([N+](=O)[O-])c4)N[C@@H](C4CCC(O)CC4)CO5)c(Oc4cnc5[nH]ccc5c4)c3)CC2)=C(c2ccc(Cl)cc2)C1` (stereo partly drawn) [Example 2-245A, (S)-2-((1H-pyrroo[2,3-b]pyridin-5-yl)oxy)-4-(4-((4′-chloro-5,5-dimethyl-3,4,5,6-tetra-hydro-[1,1′-biphenyl]-2-yl)methyl)piperazin-1-yl)-N-((3-(4-hydroxycyclohexyl)-5-nitro-3,4-dihydro-2H-benzo[b][1,4]oxazin-7-yl)sulfonyl)benzamide], the IC50 in assay [1] and in assay [2] was 0.001 µM each time.
Consider `CC1(C)CCC(CN2CCN(c3ccc(C(=O)NS(=O)(=O)c4cc5c(c([N+](=O)[O-])c4)N[C@H](CN4CCOCC4)CS5)c(Oc4cnc5[nH]ccc5c4)c3)CC2)=C(c2ccc(Cl)cc2)C1` [Example 3-3, (R)-2-((1H-pyrrolo[2,3-b]pyridin-5-yl)oxy)-4-(4-((4′-chloro-5,5-dimethyl-3,4,5,6-tetra-hydro-[1,1′-biphenyl]-2-yl)methyl)piperazin-1-yl)-N-((3-(morpholinomethyl)-5-nitro-3,4-dihydro-2H-benzo[b][1,4]thiazin-7-yl)sulfonyl)benzamide], for which the IC50 in assay [1] was found to be 0.058 µM; in assay [2] it was 0.035 µM.

A word on the IC50: it is the concentration that inhibits the measured activity by half.

The values are drawn from patent US11091478B2 (Fochon Pharmaceuticals, Ltd., priority 2017, dated 2021).
